In ChEMBL document CHEMBL6071152, “Design, synthesis, and biological evaluation of oridonin derivatives as novel NLRP3 inflammasome inhibitors for the treatment of acute lung injury” (Eur J Med Chem, 2024):
Active and inactive are the calls of the source. The rule behind the calls is not given here.

Experiments:
[1] = target: NACHT, LRR and PYD domains-containing protein 3 (Mus musculus) (UniProt Q8R4B8); assay: (§1) Inhibition of NLRP3 inflammasome priming in ICR mouse BMDM assessed as inhibition of NLRP3 protein expression in cell lysate at 0.2 to 5 uM treated for 3 hrs with LPS followed by incubation with compound for 1 hr and later stimulated with ATP for 0.5 hrs by western blot analysis; type: subcellular; settings: dose 0.2-5 µM, time 1.5 hrs
NACHT, LRR and PYD domains-containing protein 3 (Mus musculus), sequence (Q8R4B8 whole entry, the tested form may be a part): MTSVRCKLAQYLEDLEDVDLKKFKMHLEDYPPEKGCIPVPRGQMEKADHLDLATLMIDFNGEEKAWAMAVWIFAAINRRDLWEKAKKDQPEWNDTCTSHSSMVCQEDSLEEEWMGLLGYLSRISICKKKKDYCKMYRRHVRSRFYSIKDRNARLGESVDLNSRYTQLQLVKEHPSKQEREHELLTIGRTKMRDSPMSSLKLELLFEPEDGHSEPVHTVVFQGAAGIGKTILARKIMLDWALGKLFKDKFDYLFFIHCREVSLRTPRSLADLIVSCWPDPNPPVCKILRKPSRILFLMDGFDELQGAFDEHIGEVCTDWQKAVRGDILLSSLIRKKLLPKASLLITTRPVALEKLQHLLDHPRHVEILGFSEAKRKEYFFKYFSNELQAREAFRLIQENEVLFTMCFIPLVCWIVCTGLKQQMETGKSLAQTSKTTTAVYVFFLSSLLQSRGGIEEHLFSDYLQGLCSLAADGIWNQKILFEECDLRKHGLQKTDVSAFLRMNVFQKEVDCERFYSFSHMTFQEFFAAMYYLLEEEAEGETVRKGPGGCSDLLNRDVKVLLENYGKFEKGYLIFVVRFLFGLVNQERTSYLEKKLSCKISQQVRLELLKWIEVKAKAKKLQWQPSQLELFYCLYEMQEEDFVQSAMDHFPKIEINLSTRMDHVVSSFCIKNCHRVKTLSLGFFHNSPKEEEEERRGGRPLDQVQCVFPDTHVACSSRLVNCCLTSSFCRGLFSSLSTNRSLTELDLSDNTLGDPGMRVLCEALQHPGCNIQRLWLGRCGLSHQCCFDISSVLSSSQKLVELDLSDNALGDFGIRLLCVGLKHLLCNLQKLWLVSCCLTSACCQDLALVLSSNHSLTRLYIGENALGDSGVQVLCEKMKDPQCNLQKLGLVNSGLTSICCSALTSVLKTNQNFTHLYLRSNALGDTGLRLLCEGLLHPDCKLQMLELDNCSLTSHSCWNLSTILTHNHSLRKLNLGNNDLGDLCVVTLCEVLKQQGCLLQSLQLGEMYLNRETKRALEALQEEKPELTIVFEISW

[2] = target: NACHT, LRR and PYD domains-containing protein 3 (Mus musculus) (UniProt Q8R4B8); assay: Inhibition of NLRP3 inflammasome priming in ICR mouse BMDM assessed as inhibition of pro-caspase-1 protein expression in cell lysate at 0.2 to 5 uM treated for 3 hrs with LPS followed by incubation with compound for 1 hr and later stimulated with ATP for 0.5 hrs by western blot analysis; type: subcellular; settings: dose 0.2-5 µM, time 1.5 hrs
[3] = target: NACHT, LRR and PYD domains-containing protein 3 (Mus musculus) (UniProt Q8R4B8); assay: as §1, with “activation” for “priming”, “LPS/nigericin-stimulated caspase-1” for “NLRP3 protein”, “supernatant” for “lysate”, “1” for “0.2 to 5”, “nigericin” for “ATP”; type: cell-based; settings: time 1.5 hrs
[4] = target: NACHT, LRR and PYD domains-containing protein 3 (Mus musculus) (UniProt Q8R4B8); assay: Inhibition of NLRP3 inflammasome priming in ICR mouse BMDM assessed as inhibition of pro-caspase-1 expression in cell lysate at 1 uM treated for 3 hrs with LPS followed by incubation with compound for 1 hr and later stimulated with nigericin for 0.5 hrs by western blot analysis; type: subcellular; settings: time 1.5 hrs
[5] = target: NACHT, LRR and PYD domains-containing protein 3 (Mus musculus) (UniProt Q8R4B8); assay: (§2) Inhibition of NLRP3 inflammasome activation in ICR mouse BMDM assessed as inhibition of LPS/MSU-stimulated IL-1 beta expression in cell supernatant at 1 uM treated for 3 hrs with LPS followed by incubation with compound for 1 hr and later stimulated with MSU for 4 hrs by western blot analysis; type: cell-based; settings: time 5.0 hrs
[6] = target: NACHT, LRR and PYD domains-containing protein 3 (Mus musculus) (UniProt Q8R4B8); assay: Inhibition of NLRP3 inflammasome priming in ICR mouse BMDM assessed as inhibition of pro-caspase-1 protein expression in cell lysate at 1 uM treated for 3 hrs with LPS followed by incubation with compound for 1 hr and later stimulated with MSU for 4 hrs by western blot analysis; type: subcellular; settings: time 5.0 hrs
[7] = target: NACHT, LRR and PYD domains-containing protein 3 (Mus musculus) (UniProt Q8R4B8); assay: Inhibition of NLRP3 inflammasome priming in ICR mouse BMDM assessed as inhibition of pro-IL1 beta protein expression in cell lysate at 1 uM treated for 3 hrs with LPS followed by incubation with compound for 1 hr and later stimulated with MSU for 4 hrs by western blot analysis; type: subcellular; settings: time 5.0 hrs
[8] = target: NACHT, LRR and PYD domains-containing protein 3 (Mus musculus) (UniProt Q8R4B8); assay: Inhibition of NLRP3 inflammasome activation in ICR mouse BMDM assessed as inhibition of LPS/nigericin-stimulated IL-1 beta secretion in cell supernatant at 1 uM treated for 3 hrs with LPS followed by incubation with compound for 1 hr and later stimulated with nigericin for 0.5 hrs by ELISA; type: cell-based; settings: time 1.5 hrs
[9] = target: T1, Interferon-inducible protein AIM2 (Mus musculus) (UniProt Q91VJ1); assay: as §2, with “AIM2” for “NLRP3”, “poly(dA:dT)-stimulated” for “LPS/MSU-stimulated”, “cells transfected” for “stimulated”, “poly(dA:dT)” for “MSU”; type: cell-based; settings: time 5.0 hrs
T1 sequence (whole entry): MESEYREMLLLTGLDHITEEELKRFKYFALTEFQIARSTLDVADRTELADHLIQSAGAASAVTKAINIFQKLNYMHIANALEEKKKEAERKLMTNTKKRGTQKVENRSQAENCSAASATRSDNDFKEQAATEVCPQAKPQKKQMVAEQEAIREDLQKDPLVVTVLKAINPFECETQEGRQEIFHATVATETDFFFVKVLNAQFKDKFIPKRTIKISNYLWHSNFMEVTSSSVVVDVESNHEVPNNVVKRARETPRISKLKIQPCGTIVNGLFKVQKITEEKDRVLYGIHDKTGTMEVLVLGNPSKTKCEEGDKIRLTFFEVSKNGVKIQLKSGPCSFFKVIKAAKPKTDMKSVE

[10] = target: T1, Interferon-inducible protein AIM2 (Mus musculus); assay: as §2, with “AIM2” for “NLRP3”, “poly(dA:dT)-stimulated caspase-1” for “LPS/MSU-stimulated IL-1 beta”, “cells transfected” for “stimulated”, “poly(dA:dT)” for “MSU”; type: cell-based; settings: time 5.0 hrs
[11] = target: NACHT, LRR and PYD domains-containing protein 3 (Mus musculus) (UniProt Q8R4B8); assay: Inhibition of NLRP3 inflammasome priming in ICR mouse BMDM assessed as inhibition of TNF-alpha secretion in cell supernatant at 0.2 to 5 uM pretreated with compound for 1 hr followed by stimulation with LPS for 3 hrs and later incubated with ATP for 30 mins by ELISA; type: cell-based; settings: dose 0.2-5 µM, time 4.5 hrs
[12] = target: NACHT, LRR and PYD domains-containing protein 3 (Mus musculus) (UniProt Q8R4B8); assay: Inhibition of NLRP3 inflammasome priming in ICR mouse BMDM assessed as inhibition of pro-caspase-1 expression in cell supernatant at 0.2 to 5 uM pretreated with compound for 1 hr followed by stimulation with LPS for 3 hrs and later incubated with ATP for 30 mins by western blot analysis; type: cell-based; settings: dose 0.2-5 µM, time 4.5 hrs
[13] = target: NACHT, LRR and PYD domains-containing protein 3 (Mus musculus) (UniProt Q8R4B8); assay: Inhibition of NLRP3 inflammasome priming in ICR mouse BMDM assessed as inhibition of NLRP3 expression in cell supernatant at 0.2 to 5 uM pretreated with compound for 1 hr followed by stimulation with LPS for 3 hrs and later incubated with ATP for 30 mins by western blot analysis; type: cell-based; settings: dose 0.2-5 µM, time 4.5 hrs
Mus musculus [14] = assay: Anti-inflammatory activity against LPS-stimulated acute lung injury C57BL/6 mouse model assessed as active animal at 10 mg/kg, ip treated for 3 days and on third day administered with LPS at 30 mins post-compound challenge; type: functional, organism-based; settings: time 3.0 day
Mus musculus [15] = assay: Anti-inflammatory activity against LPS-stimulated acute lung injury C57BL/6 mouse model assessed as decrease in weight loss at 0.1 to 1 mg/kg, ip treated for 3 days and on third day administered with LPS at 30 mins post-compound challenge; type: functional, organism-based; settings: dose 0.1-1 mg/kg, time 3.0 day
Mus musculus [16] = assay: (§3) Anti-inflammatory activity against LPS-stimulated acute lung injury C57BL/6 mouse model assessed as decrease in TNF-alpha level in serum at 0.1 to 1 mg/kg, ip treated for 3 days and on third day administered with LPS at 30 mins post-compound challenge and measured after 12 hrs by ELISA; type: functional, organism-based; settings: dose 0.1-1 mg/kg, time 3.5 day
Mus musculus [17] = assay: (§4) Anti-inflammatory activity against LPS-stimulated acute lung injury C57BL/6 mouse model assessed as decrease in IL-1 beta level in serum at 0.1 to 1 mg/kg, ip treated for 3 days and on third day administered with LPS at 30 mins post-compound challenge and measured after 12 hrs by ELISA; type: functional, organism-based; settings: dose 0.1-1 mg/kg, time 3.5 day
Mus musculus [18] = assay: Anti-inflammatory activity against LPS-stimulated acute lung injury C57BL/6 mouse model assessed as decrease in TNF-alpha level in BALF at 0.1 to 1 mg/kg, ip treated for 3 days and on third day administered with LPS at 30 mins post-compound challenge and measured after 12 hrs by ELISA; type: functional, organism-based; settings: dose 0.1-1 mg/kg, time 3.5 day
Mus musculus [19] = assay: Anti-inflammatory activity against LPS-stimulated acute lung injury C57BL/6 mouse model assessed as decrease in IL-1 beta level in BALF at 0.1 to 1 mg/kg, ip treated for 3 days and on third day administered with LPS at 30 mins post-compound challenge and measured after 12 hrs by ELISA; type: functional, organism-based; settings: dose 0.1-1 mg/kg, time 3.5 day
Mus musculus [20] = assay: as §4, with “mRNA expression” for “level”, “right lung” for “serum”, “RT-qPCR analysis” for “ELISA”; type: functional, organism-based; settings: dose 0.1-1 mg/kg, time 3.5 day
Mus musculus [21] = assay: as §3, with “IL-18 mRNA expression” for “TNF-alpha level”, “right lung” for “serum”, “RT-qPCR analysis” for “ELISA”; type: functional, organism-based; settings: dose 0.1-1 mg/kg, time 3.5 day
Mus musculus [22] = assay: Anti-inflammatory activity against LPS-stimulated acute lung injury C57BL/6 mouse model assessed as decrease in thickening of alveolar septa in right lung at 1 to 10 mg/kg, ip treated for 3 days and on third day administered with LPS at 30 mins post-compound challenge and measured after 12 hrs by Hematoxylin-Eosin staining analysis; type: functional, organism-based; settings: dose 1-10 mg/kg, time 3.5 day

inhibition [1]: inactive
inhibition [2]: inactive
inhibition [3]: Active
inhibition [4]: inactive
inhibition [5]: Active
inhibition [6]: inactive
inhibition [7]: inactive
inhibition [8]: Active
inhibition [9]: inactive
inhibition [10]: inactive
inhibition [11]: inactive
inhibition [12]: inactive
inhibition [13]: inactive
SMILES: C=C1C(=O)[C@]23[C@H](OC(=O)Nc4ccc(F)cc4)[C@H]1CC[C@H]2[C@]12C=CCC(C)(C)[C@H]1[C@H](O)[C@@]3(O)OC2
Activity (Mus musculus [14]): Active
Activity (Mus musculus [15]): Active
Activity (Mus musculus [16]): Dose-Dependent Effect
Activity (Mus musculus [17]): Dose-Dependent Effect
Activity (Mus musculus [18]): Dose-Dependent Effect
Activity (Mus musculus [19]): Dose-Dependent Effect
Activity (Mus musculus [20]): Dose-Dependent Effect
Activity (Mus musculus [21]): Dose-Dependent Effect
Activity (Mus musculus [22]): Active
